From patent publication EP4785942A1, “NOVEL COMBINATION THERAPY FOR BLOOD CANCER” (Carna Biosciences, Inc., priority 2023, dated 2025) come the findings set out here.

What all share (format): cell-based
In one assay the test system is THP-1. The assay can be described thus: Cell growth suppression test in monotherapy (resazurin). Particulars: Homo sapiens, read-out: Cell growth suppression activity IC50. The protocol:
(§1) A human acute monocytic leukemia cell line (THP-1), a human acute myeloid leukemia cell line (MV-4-11), a human acute monocytic leukemia cell line (MOLM-14), and a human erythroleukemia cell line (TF-1) were cultured in a 5% CO2 incubator using a RPMI1640 medium (Roswell Park Memorial Institute medium, nacalai tesque) comprising 10% Fetal bovine serum (Thermo Scientific, SIGMA-ALDRICH, or Cytiva) and 1% penicillin/streptomycin (nacalai tesque).
(§2) THP-1 cells and MV-4-11 cells at 2×10^4 cells/well, and MOLM-14 cells and TF-1 cells at 5×10^3 cells/well were each seeded to a 96 well plate (cell plate), and thereto was added a test compound diluted with the medium so that the final concentration thereof would be 3 nM to 30 µM (final DMSO concentration: 0.3%). After the resulting mixture was cultured for 72 hours, a resazurin reagent (nacalai tesque) was added thereto. After 3 hours, a fluorescence at an excitation wavelength of 560 nm and a fluorescence wavelength of 590 nm was measured, and each IC50 value of the inhibitory activity was calculated by a criterion in which a well without the compound and without the cells was set to be 100%, and a well without the compound and with cells was set to be 0%.
For orientation: Alamar Blue is a resazurin reagent that responds to reducing activity.

The next assay concerns MOLM-14. The description is as above. Particulars: Homo sapiens, read-out: Cell growth suppression activity IC50. The protocol: as §1, §2
The test system of another assay is MV-4-11. Described as above. Particulars: Homo sapiens, read-out: Cell growth suppression activity IC50. The protocol:
as §1, §2

The next assay has as its system TF-1. The description is as above. Particulars: Homo sapiens, read-out: Cell growth suppression activity IC50. The procedure:
as §1, §2

A further assay relates to THP-1 cells. In words: Dose-response test of DNA methyltransferase inhibitor in the presence of compound (I). The settings on record: Homo sapiens, read-out: THP-1 cell growth suppression activity azacitidine IC50 (converted). The protocol:
as §2
Changes in the IC50 value of a DNA methyltransferase inhibitor (azacitidine) in the presence of the compound (I) were investigated.

Where [1] appears, read: THP-1 cells, monotherapy, cultured for 72 hours.
Where [2] appears, read: MOLM-14 cells, monotherapy, cultured for 72 hours.
The mark [3] stands for this setting: MV4-11, MV-4-11 cells, monotherapy, cultured for 72 hours.
The mark [4] stands for this setting: TF-1 cells, monotherapy, cultured for 72 hours.

Where two headings read alike, the source gives them in different places. Where only a bound is given, the exact number is not on record here.

The IC50 is the concentration needed to halve the response being measured.

For `Nc1ncn([C@@H]2O[C@H](CO)[C@@H](O)[C@H]2O)c(=O)n1` [Azacitidine, azacitidine], the IC50 with THP-1 (setting [1]) is 7390 nM; in the assay with MOLM-14 (setting [2]), 2850 nM; in the assay on MV-4-11 (setting [3]), 1200 nM; in the assay on TF-1 (setting [4]), 1920 nM; in the assay on THP-1 cells (THP-1, Concentration of compound (I) 0 µM (DMSO-added control)) it was 6930 nM; in the assay on THP-1 cells (THP-1, Concentration of compound (I) 3 µM), 2030 nM.
Regarding `CCOC(=O)C1=C(NN2CCN(CC(F)(F)F)CC2)O/C(=C\c2c[nH]c3ncccc23)C1=O` [Compound (I), ethyl 5-[(1H-pyrrolo[2,3-b]pyridin-3-yl)methylene]-4-oxo-2-{[4-(2,2,2-trifluoroethyl)piperazinyl]amino}-4,5-dihydrofuran-3-carboxylate], the IC50 with THP-1 (setting [1]) was 4070 nM; with MOLM-14 (setting [2]), 160 nM; with MV-4-11 (setting [3]) it was 190 nM; in the assay with TF-1 (setting [4]), 340 nM.
In the case of `Nc1ncn([C@H]2C[C@H](O)[C@@H](CO)O2)c(=O)n1` [Decitabine, decitabine], the IC50 with THP-1 (THP-1, 72 h) was greater than 30000 nM; in the assay with MOLM-14 (MOLM-14, 72 h), 160 nM; with MV-4-11 (MV4-11, 72 h), 540 nM; in the assay on TF-1 (TF-1, 72 h), 120 nM.
